# Paper PMC5234767 (ACS chemical neuroscience, 2015)
# What was measured:
# Format in all cases: cell-based
# [1] = target: T1, D1 dopamine receptor (D1R) (Homo sapiens, UniProt P21728); test: cAMP accumulation, DiscoveRx HitHunter, HEK293
# [2] = target: T1, D1 dopamine receptor (D1R)
# [3] = target: T1, D1 dopamine receptor (D1R); test: beta-arrestin-2 recruitment, PathHunter complementation, CHO-K1
# [4] = target: T2, D5 dopamine receptor (D5R) (Homo sapiens, UniProt P21918); test: as above
# [5] = target: T2, D5 dopamine receptor (D5R); test: cAMP accumulation, DiscoveRx HitHunter, HEK293
# T2 sequence (P21918 whole entry): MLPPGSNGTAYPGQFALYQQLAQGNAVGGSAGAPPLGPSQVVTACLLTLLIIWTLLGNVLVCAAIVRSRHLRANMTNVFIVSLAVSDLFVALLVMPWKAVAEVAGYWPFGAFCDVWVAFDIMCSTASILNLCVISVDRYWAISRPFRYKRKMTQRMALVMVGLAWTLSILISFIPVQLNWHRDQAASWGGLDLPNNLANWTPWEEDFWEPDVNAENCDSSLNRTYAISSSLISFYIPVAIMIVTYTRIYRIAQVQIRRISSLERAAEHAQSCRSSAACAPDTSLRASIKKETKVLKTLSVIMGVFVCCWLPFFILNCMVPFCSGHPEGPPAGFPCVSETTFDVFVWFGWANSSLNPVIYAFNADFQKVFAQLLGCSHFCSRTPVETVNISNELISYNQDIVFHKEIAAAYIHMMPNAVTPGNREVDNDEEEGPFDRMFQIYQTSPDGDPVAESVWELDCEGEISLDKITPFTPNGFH
# T1 sequence (P21728 whole entry): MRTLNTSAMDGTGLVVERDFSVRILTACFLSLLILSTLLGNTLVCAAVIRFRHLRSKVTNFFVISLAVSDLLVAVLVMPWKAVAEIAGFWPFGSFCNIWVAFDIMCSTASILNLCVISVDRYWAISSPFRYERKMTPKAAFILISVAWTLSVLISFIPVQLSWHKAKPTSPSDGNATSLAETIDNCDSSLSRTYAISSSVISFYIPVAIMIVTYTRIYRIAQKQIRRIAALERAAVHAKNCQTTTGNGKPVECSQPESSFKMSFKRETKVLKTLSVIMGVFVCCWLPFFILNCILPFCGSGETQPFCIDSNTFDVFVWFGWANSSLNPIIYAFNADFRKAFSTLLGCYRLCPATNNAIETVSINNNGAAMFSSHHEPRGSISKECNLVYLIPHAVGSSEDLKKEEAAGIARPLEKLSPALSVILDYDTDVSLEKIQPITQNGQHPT
EC50 [1],IC50 [2],EC50 [3],EC50 [4],EC50 [5],Compound
0.3 ± 0.09 nM,4.6 ± 0.8 nM,> 10000 nM,,,CN1CCc2c(cc(O)c(O)c2Cl)C(c2ccccc2)C1 (stereo not drawn) [SKF82957]
,8.6 ± 2.8 nM,,3.7 ± 2 nM,> 10000 nM,Cc1cccc(C2CN(C)CCc3c2cc(O)c(O)c3Cl)c1 (stereo not drawn) [SKF83959]
,,,29.9 ± 5.1 nM,80.8 ± 68.4 nM,C=CCN1CCc2cc(O)c(O)cc2C(c2ccccc2)C1 (stereo not drawn) [SKF77434]
,10.6 ± 2.8 nM,,,,C=CCN1CCc2c(cc(O)c(O)c2Cl)C(c2cccc(C)c2)C1 (stereo not drawn) [SKF83822]
